By Tmax is commonly meant the time from dosing to the highest level. The Cmax is the highest concentration seen after dosing. In general, AUC refers to the area under the concentration-time curve, a measure of exposure.

Data set [1] in a line: Single dose oral PK study in male Sprague Dawley rats (plasma by LC-MS/MS). To be noted: mean; for AUC: read-out: Oral PK Parameters AUC, Prodrug. In kind it is in vivo. The procedure:
(§1) We describe here PK results of prodrugs of PRX-002 (−) or (+) isomers. All doses of prodrugs were administered such that they were equivalent to 5 mg/kg of PRX-002 (−) or (+) for oral studies and 2 mg/kg PRX-002 (−) or (+) for intravenous studies in male Sprague-Dawley (MSD) rats. Higher doses of up to 10 or 15 mg/kg [again equivalent to PRX-002 (−)] were used in some studies (as specified)]. Formulation preparation, dose administration and time of sample collection was as follows.
Test item was weighed [5 mg equivalent dose of PRX-002 for prodrugs] and transferred to a graduated tube. Then 10 μL of Tween 80 was added and vortexed mixed until the test item was completely mixed. Small volume of 0.5% (w/v) carboxymethylcellulose in water solution was then added dropwise with continuous vortex mixing until a uniform suspension was obtained. The final volume was then made up to 10 mL with 0.5% (w/v) carboxymethylcellulose in water with final strength of 0.5 mg/mL. […] This formulation was freshly prepared before the administration to animals.
(§2) Adult male Sprague Dawley Rats aged 8-10 weeks were used for the study. Fasted animals were administered test item by oral route with a dose of 5 mg/kg body weight at dose volume of 10 mL/kg body weight. Under mild isoflurane anesthesia, blood specimens were collected by retro-orbital puncture method using capillary tubes into pre-labeled tubes containing anticoagulant (K2EDTA-2 mg/mL blood) during the next 24 hours of post dose as mentioned in below table. For blood sampling at multiple time points, right and left eyes were used alternatively for blood collection. Collected blood specimens were centrifuged at 4000 rpm, 4° C. for 10 minutes and plasma were separated and stored at −80° C. until analysis.
Blood was collected as outlined in Table 39.1 (oral).
Test item PRX-P4-003 was weighed and transferred to a graduated tube. Then 12.42 μL of Tween 80 was added and vortexed mixed until the test item was completely mixed. Small volume of 0.5% (w/v) Carboxymethylcellulose in water solution was then added dropwise with continuous vortex mixing until a uniform suspension was obtained. The final volume was then made up to 12.42 mL with 0.5% (w/v) Carboxymethylcellulose in water with final strength of 1.0 mgA/mL. […] This formulation was freshly prepared before the administration to animals.
as §2, with “with a PRX-P4-003” for “test item”, “10” for “5”
Test item PRX-P5-006 was weighed and transferred to a graduated tube. Then 10 μL of Tween 80 was added and vortexed mixed until the test item was completely mixed. Small volume of 0.5% (w/v) Carboxymethylcellulose in water solution was then added dropwise with continuous vortex mixing until a uniform suspension was obtained. The final volume was then made up to 10 mL with 0.5% (w/v) Carboxymethylcellulose in water with final strength of 3.97 mg/mL. […] This formulation was freshly prepared before the administration to animals.
Adult male Sprague Dawley Rats aged 8-10 weeks were used for the study. Fasted animals were administered with a PRX-P5-006 by oral route with a dose of 15 mg/kg body weight at dose volume of 10 mL/kg body weight. […]

Data set [2] in a line: Single dose intravenous PK study in male Sprague Dawley rats (plasma by LC-MS/MS). To be noted: male, Sprague Dawley, rat; IV 2 mg/kg [equivalent to PRX-002 (−)], analyte: prodrug in plasma, mean; read-out: IV PK Parameters Tmax, Prodrug. The class given is in vivo. The protocol: as §1
as §2, with “study. Animals” for “study. Fasted animals”, “administered the” for “administered”, “by Intravenous bolus” for “by oral”, “of 2” for “of 5”, “of 5.0” for “of 10”
Blood was collected as outlined in Table 39.2 (IV).
Test item PRX-P4-003 was weighed and transferred to a graduated tube. Then 600 μL of PEG 400 (v/v) was added and vortex mixed thoroughly until the test item was completely dissolved. Then 1.800 mL of Hydroxypropyl-β-cyclodextrin (HPβCD, 50% w/v) was added and vortex mixed thoroughly. The final volume was then made up to 3.600 mL with sterile water for injection (SWFI, v/v) with final formulation strength of 5.16 mgA/mL. […] This formulation was freshly prepared before the administration to animals.
as §2, with “study. Animals” for “study. Fasted animals”, “administered with a PRX-P4-003” for “administered test item”, “by Intravenous bolus” for “by oral”, “of 10” for “of 5”, “of 5” for “of 10”
Test item PRX-P5-006 was weighed and transferred to a graduated tube. Then 500 μL of DMSO (v/v) was added vortex mixed thoroughly until the test item was completely dissolved. Then 4000 μL of Hydroxypropyl-β-cyclodextrin (HPβCD, 50% w/v) was added and vortex mixed thoroughly. Then 2500 μL of PEG 400 (v/v) was added and vortex mixed thoroughly. The final volume was then made up to 10000 μL with sterile water for injection (SWFI, v/v) with final formulation strength of 3.97 mg/mL. […] This formulation was freshly prepared before the administration to animals.
as §2, with “Animals” for “Fasted animals”, “with a PRX-P5-006” for “test item”, “Intravenous bolus” for “oral”, “15” for “5”
The plasma concentrations of fencamfamine were measured by LC-MS/MS over time. […] The release of fencamfamine from the prodrugs varied depending on the chain length of the fatty acid linkers attached to fencamfamine. […]

The mark [3] stands for this setting: male, Sprague Dawley, rat, in vivo, oral 5 mg/kg [equivalent to PRX-002 (−)], analyte: prodrug in plasma, read-out: Oral PK Parameters Tmax, Prodrug.
Where [4] appears, read: male, Sprague Dawley, rat, in vivo, po, 5 mg/kg, oral 5 mg/kg [equivalent to PRX-002 (−)], analyte: prodrug in plasma, read-out: Oral PK Parameters Cmax, Prodrug.
[5] abbreviates: male, Sprague Dawley, rat, in vivo, oral 5 mg/kg [equivalent to PRX-002 (−)], analyte: prodrug in plasma.

Molecules are shown by their SMILES. Like-named read-outs stand apart in the source and are kept apart here.

As to `CCCCCCCCCC(=O)OCOC(=O)N(CC)C1C2CCC(C2)C1c1ccccc1` (single isomer, unassigned) [PRX-P4-002, N-(Decanoyloxymethoxycarbonyl)-(−)-N-ethyl-3-phenylbicyclo[2.2.1]heptan-2-amine], the time to peak (Tmax) in data set [1] (setting [3]) worked out at 0 min; in data set [2], 0 h.
With `CCCCCCCCCC(=O)OC(C)OC(=O)N(CC)C1C2CCC(C2)C1c1ccccc1` (single isomer, unassigned) [PRX-P5-002, N-(1-Decanoyloxyethoxycarbonyl)-(−)-N-ethyl-3-phenylbicyclo[2.2.1]heptan-2-amine], the Tmax in data set [1] (setting [3]) was 0 min; in data set [2], 0 h.
In the case of `CCN(C(=O)[C@@H](NC(=O)[C@@H](N)C(C)C)C(C)C)C1C2CCC(C2)C1c1ccccc1` (single isomer, unassigned) [PRX-P6-011, N-(Valyl-valyl)-(+)-N-ethyl-3-phenylbicyclo[2.2.1]heptan-2-amine], in data set [1] (PRX-P6-011 oral 5 mg/kg), the “AUC% extrap of PRX-P6-011” value came to 23.190 ± 3.6640%. Also, the Cmax in data set [1] (setting [4]) turned out to be 82.2 ± 30.9 ng/mL; in data set [1] (male, Sprague-Dawley, rat, in vivo, po, 5 mg/kg, PRX-P6-011 oral 5 mg/kg, read-out: Cmax of PRX-P6-011), 82.2 ± 30.9 ng/mL. The concentration at 0 h in data set [1] (male, Sprague Dawley, rat, in vivo, PRX-P6-011 oral 5 mg/kg b.w., 0.00 h, read-out: Plasma concentrations of PRX-P6-011) turned out to be 0 ng/mL. Also, the concentration at 0.08 h in data set [1] (male, Sprague Dawley, rat, in vivo, PRX-P6-011 oral 5 mg/kg b.w., 0.08 h, read-out: Plasma concentrations of PRX-P6-011) turned out to be 75.9 ng/mL. For the same molecule, the concentration at 4 h in data set [1] (male, Sprague Dawley, rat, in vivo, PRX-P6-011 oral 5 mg/kg b.w., 4.00 h, read-out: Plasma concentrations of PRX-P6-011) amounted to 0 ng/mL. In addition, in data set [1] (male, Sprague Dawley, rat, in vivo, PRX-P6-011 oral 5 mg/kg b.w., 6.00 h, read-out: Plasma concentrations of PRX-P6-011), the concentration at 6 h came out at 0 ng/mL. In addition, the concentration at 24 h in data set [1] (male, Sprague Dawley, rat, in vivo, PRX-P6-011 oral 5 mg/kg b.w., 24.00 h, read-out: Plasma concentrations of PRX-P6-011) is 0 ng/mL. Also, the AUC in data set [1] (setting [5]) was found to be 44.2 ± 17.1 ng·h/mL. Moreover, the time to peak (Tmax) was 8.4 ± 6 min in data set [1] (setting [3]) and 8.22 ± 5.88 min in data set [1] (male, Sprague-Dawley, rat, in vivo, PRX-P6-011 oral 5 mg/kg, read-out: Tmax of PRX-P6-011). Besides, the AUC(0-inf) in data set [1] (male, Sprague-Dawley, rat, in vivo, po, 5 mg/kg, PRX-P6-011 oral 5 mg/kg, read-out: AUCinf of PRX-P6-011) amounted to 57.3 ± 21.3 ng·h/mL. Further, the AUC(0-t) in data set [1] (male, Sprague-Dawley, rat, in vivo, po, 5 mg/kg, PRX-P6-011 oral 5 mg/kg, read-out: AUClast of PRX-P6-011) was 44.2 ± 17.1 ng·h/mL. The MRT last in data set [1] (male, Sprague-Dawley, rat, in vivo, po, 5 mg/kg, PRX-P6-011 oral 5 mg/kg, read-out: MRTlast of PRX-P6-011) amounted to 34.5 ± 2.22 min. In data set [1] (male, Sprague-Dawley, rat, in vivo, po, 5 mg/kg, PRX-P6-011 oral 5 mg/kg, read-out: T1/2 of PRX-P6-011 (converted)), the half-life was 70.3 ± 12.7 min. The concentration at 0.25 h in data set [1] (male, Sprague-Dawley, rat, in vivo, PRX-P6-011 oral 5 mg/kg b.w., 0.25 h, read-out: Plasma concentrations of PRX-P6-011) was determined as 62.8 ng/mL. The concentration at 0.5 h in data set [1] (male, Sprague-Dawley, rat, in vivo, PRX-P6-011 oral 5 mg/kg b.w., 0.50 h, read-out: Plasma concentrations of PRX-P6-011) was determined as 20.8 ng/mL. The concentration at 1 h in data set [1] (male, Sprague-Dawley, rat, in vivo, PRX-P6-011 oral 5 mg/kg b.w., 1.00 h, read-out: Plasma concentrations of PRX-P6-011) came to 13 ng/mL. For the same molecule, the concentration at 2 h in data set [1] (male, Sprague-Dawley, rat, in vivo, PRX-P6-011 oral 5 mg/kg b.w., 2.00 h, read-out: Plasma concentrations of PRX-P6-011) came to 7.87 ng/mL.
For `CCN(C(=O)[C@@H](N)CCCCN)C1C2CCC(C2)C1c1ccccc1` (stereo partly drawn) [PRX-P1-005, N-Lysyl-(−)-N-ethyl-3-phenylbicyclo[2.2.1]heptan-2-amine], the highest concentration (Cmax) in data set [1] (setting [4]) is 32 ± 7.5 ng/mL. The AUC in data set [1] (setting [5]) worked out at 42 ± 9.4 ng·h/mL. For the same molecule, the time of peak concentration (Tmax) in data set [1] (setting [3]) was 30 min.
Consider `CCN(C(=O)[C@@H](N)Cc1ccccc1)C1C2CCC(C2)C1c1ccccc1` (stereo partly drawn) [PRX-P1-013, N-Phenylalanyl-(−)-N-ethyl-3-phenylbicyclo[2.2.1]heptan-2-amine], for which the Cmax in data set [1] (setting [4]) is 307 ± 49.6 ng/mL. Further, the area under the curve (AUC) in data set [1] (setting [5]) came out at 678 ± 101 ng·h/mL. Besides, the Tmax in data set [1] (setting [3]) was 42 ± 18 min.

The values above are taken from patent US10662146B2, “Prodrugs of fencamfamine” (Praxis Bioresearch, LLC, priority 2015, dated 2020).
